EP4729518A1, “CRYSTAL FORM OF METHIONINE ADENOSYLTRANSFERASE 2A HETEROCYCLIC INHIBITOR, PREPARATION METHOD THEREFOR, AND USE THEREOF” (Nanjing Chia Tai Tianqing Pharmaceutical Co., Ltd., priority 2023, dated 2024)
Each block holds one compound with its values, some of them ahead of it.

Assays:
[1] = Suspension stirring competition among anhydrous crystal forms (XRD); type: physicochemical; conditions: different solvents and temperatures (room temperature/50 °C)
Description: The interconversion relationships among the various anhydrous crystal forms were investigated using a suspension stirring competition method in different solvent systems at different temperatures. 1) Equal masses (3-4 mg) of the various anhydrous crystal forms (crystal forms A/B/C/G/H/L/M) were separately weighed and added to HPLC vials. To each vial, 1.0 mL of the corresponding solvent that had been pre-saturated with the crystal form G at the corresponding temperature was added. The resulting suspensions were magnetically stirred (1000 rpm) at room temperature or 50 °C. Samples were taken at 10 min, 3 d, and 7 d, and then centrifuged to collect the solids, which were then subjected to XRD analysis. Table 25: Summary of results of suspension stirring competition test among various anhydrous crystal forms
2) Equal masses (about 5 mg) of the various anhydrous crystal forms (crystal forms B/H/L) were separately weighed and added to HPLC vials. To each vial, 1.0 mL of a solvent that had been pre-saturated with the crystal form G at the corresponding temperature was added. The resulting suspensions were magnetically stirred (1000 rpm) at room temperature or 50 °C. Samples were taken at 10 min, 6 h, 1 d, 4 d, and 7 d, and then centrifuged to collect the solids, which were then subjected to XRD analysis. […]

[2] = Heating experiment via DSC followed by XRD; type: physicochemical; conditions: Heating temperature 250 °C
Excerpt: The heated samples were then collected and subjected to XRD analysis. Table 27: Summary of heating test results for various crystal forms

[3] = Long-term stability study (XRD and HPLC); type: physicochemical; conditions: 40±2 °C/75%±5% RH
Description: A sample of the crystal form L was placed under the conditions of 40±2 °C/75%±5% RH, and the physicochemical stability of the sample was tested using XRD and HPLC.

[4] = Solid state stability of crystal forms (XRD and HPLC); type: physicochemical
Description: Samples of the crystal forms B, H, and L were placed under the conditions of 25 °C/60% RH and 40 °C/75% RH for 17 days, and then the physicochemical stability of the samples was tested using XRD and HPLC. Table 24: Summary of solid state stability evaluation of crystal forms

[5] = test system: HCT116 MTAP-/- cells; assay: Cellular assay: cell proliferation inhibition (CellTiter-Glo); type: cell-based; conditions: Homo sapiens, HCT-116; incubated for 120 h
Description: HCT116 MTAP-/- cells (purchased from Horizon Discovery) (a human colorectal cancer cell strain with deletion of MTAP gene) were cultured in a medium containing RPMI 1640 + 10% FBS (fetal bovine serum). On day 0 of the experiment, the viable cell density of the aforementioned cells in the logarithmic growth phase was adjusted to 5000 cells/mL, and then the cells were seeded into a 96-well plate at 100 µL/well, with blank group wells set up in parallel. The seeded cell plate was placed in an incubator at 37 °C with 5% CO2 and incubated overnight.
On day 1 of the experiment, the cell plate incubated overnight was taken out, and the supernatant was discarded. A serum-free RPMI 1640 medium was then added at 80 µL/well, and the plate was placed in an incubator for starvation culture for 4 h. The test compound was dissolved in DMSO (dimethyl sulfoxide) to prepare a 10 mM compound stock solution. After the starvation was completed, the cell plate was taken out, and a medium containing RPMI 1640 + 20% FBS was further added at 80 µL/well. The cell plate was placed on an automated dispenser D300e (Tecan), with the program for compound addition set as follows: the highest concentration of the compound tested was 30 µM, and 3-fold gradient dilution was performed with DMSO to give a total of 10 concentrations; two replicate wells were set for each concentration; the final concentration of DMSO in each well of the 96-well plate was 0.3% (v/v). The pre-prepared 10 mM test compound stock solution was taken and then added by running the aforementioned drug addition program. After the drug addition was completed, the cell plate was placed in an incubator and incubated for 120 h.
On day 6 of the experiment, the cell plate was taken out, and CellTiter-Glo® (purchased from Promega) was added at 50 µL/well. The […] was measured on Envision (PerkinElmer) according to the operation procedures in the instructions. […]

[6] = In vivo pharmacokinetic study in ICR mice; conditions: mouse, PO @ 10 mg/kg, male ICR mice, plasma; for AUC(0-t): read-out: Area under the curve AUC0-t; for Cmax: read-out: Peak concentration Cmax
Description: Male ICR mice (6-10 weeks old, Vital River Laboratory Animal Technology Co., Ltd.) were housed in an SPF animal room at a temperature of 20-25 °C, with a relative humidity of 40%-70%, and under a 12/12-hour light/dark cycle. The animals were given free access to water and food. After at least 5 days of normal feeding, mice with good physical signs as determined by a veterinarian could be included in this experiment. Each mouse was marked with a number on the tail.
The day before the experiment, the mice were fasted overnight, with free access to water. They were fed 4 h after administration. The compound was prepared into a 20 mg/mL stock solution with DMSO. An appropriate volume of the 20 mg/mL stock solution was accurately pipetted into a glass flask, and then an appropriate volume of PEG400 was added. The mixture was mixed well, and then propylene glycol (PG) was added. The ratio of vehicles in the final formulation was DMSO:PEG400:PG (v/v/v) = 5:65:30. This process yielded a test dosing solution of each test compound at a concentration of 1 mg/mL.
The mice were weighed, and then the theoretical administration volume for each mouse was calculated according to the following formula. The actual administered dose for each mouse and the time of blood sample collection should be recorded in detail in the corresponding table. Theoretical administration volume(mL); = ((Dose(mg⋅kg^−1))/(Concentration of test solution(mg⋅mL^−1))) × Animal body weight(kg) [formula]
On the day of the experiment, the test dosing solution of each test compound was intragastrically administered to the mice in each group at a dose of 10 mg/kg. At each time point after administration, about 40 µL of blood was collected from the orbit of each mouse and then placed into an EDTA-K2 anticoagulation tube. The whole blood samples were centrifuged at 1500-1600 g for 10 min. The separated plasma was stored in a freezer at -40 °C to -20 °C for biological sample analysis.
The concentrations of the compounds in the biological samples obtained from the experiment were determined using an LC-MS/MS analysis method. Pharmacokinetic parameters were calculated using a non-compartmental model in Pharsight Phoenix 7.0.

[7] = target: T1, MAT2A enzyme (Homo sapiens, UniProt P31153); assay: MAT2A enzymatic assay (Biomol Green, OD620); type: biochemical
T1 construct: purchased BPS 71401
Description: • a) First, a 5× MAT2A assay buffer (250 mM Tris-HCl, pH 8.0; 250 mM KCl; 75 mM MgCl2; 0.025% BSA; 0.05% Brij35; 1.5 mM EDTA) was prepared and partially diluted to 1× for later use. • b) Preparation and addition of MAT2A enzyme (BPS, 71401): The MAT2A enzyme was diluted to 3.674 ng/µL (1.67×, final concentration: 2.20 ng/µL) with the 1× MAT2A assay buffer. Using a BioTek (MultiFlo FX) automated dispenser, the 1.67× MAT2A enzyme solution was added to the compound test wells and negative control wells of a plate at 15 µL/well, and meanwhile, the 1× MAT2A assay buffer was added to the blank control wells at 15 µL/well. • c) Preparation and addition of compounds: The test compound was diluted from a 10 mM stock solution to 100 µM with DMSO, and the positive control drug AGI-24512 was diluted under the same conditions. Using a Tecan compound dispenser (D300e), the dilutions were automatically dispensed into each well according to a preset concentration gradient. The dispensed volume was minimal and considered negligible. The concentration gradient started at 1 µM (1/2 log dilution), and a total of 8 gradient points were set. The plate was centrifuged at 2500 rpm for 30 s and incubated at 25 °C for 30 min. • d) Preparation of ATP: 10 mM ATP (Sigma, A7699) was diluted to 700 µM with the 1× MAT2A assay buffer for later use. • e) Preparation and addition of mixed solution of substrate and ATP: A mixed solution was prepared containing the 5× MAT2A assay buffer (3 µL/well), 750 µM L-methionine (Adamas, 01100469) (2.5 µL/well), 700 µM ATP (2.5 µL/well), and double distilled water (2 µL/well). The total amount of the required mixed solution was prepared according to the number of detection wells. Using a BioTek (MultiFlo FX) automated dispenser, the mixed solution was added at 10 µL/well. The resulting mixture was centrifuged at 2500 rpm for 30 s and allowed to react at 25 °C for 150 min. • f) Addition of Biomol Green detection reagent: Using a BioTek (MultiFlo FX) automated dispenser, Biomol Green (Enzo, BML-AK111) was added at 50 µL/well. The plate was centrifuged at 2500 rpm for 30 s and incubated at 25 °C for 20 min. • g) After the reaction was completed, the OD620 values were measured using a Perkin Elmer (Envision 2105) multimode microplate reader.
The inhibition rate was calculated using the following formula: Inhibition rate % = (ODmax −ODsample)/(ODmax −ODmin) × 100% [formula] where: • ODsample represents the OD620 value of the sample well; • ODmin represents the mean OD620 value of the blank control wells containing no enzyme and no test compound; • ODmax represents the mean OD620 value of the negative control wells containing enzyme but no compound. […]

T1 sequence (P31153 whole entry): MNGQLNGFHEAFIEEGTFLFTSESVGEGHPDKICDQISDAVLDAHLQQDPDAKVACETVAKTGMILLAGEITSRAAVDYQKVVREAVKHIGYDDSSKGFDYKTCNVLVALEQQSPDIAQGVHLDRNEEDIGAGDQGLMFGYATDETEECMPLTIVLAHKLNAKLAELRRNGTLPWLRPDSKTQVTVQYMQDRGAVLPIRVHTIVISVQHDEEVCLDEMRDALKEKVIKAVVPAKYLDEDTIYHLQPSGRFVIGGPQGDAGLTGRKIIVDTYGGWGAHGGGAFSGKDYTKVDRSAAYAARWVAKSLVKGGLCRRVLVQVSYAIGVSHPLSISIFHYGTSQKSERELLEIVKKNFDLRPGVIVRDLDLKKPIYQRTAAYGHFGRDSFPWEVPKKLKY

stability in suspension stirring competition [1]: stable crystal form | After heating (crystal form) [2]: Crystal form A | Crystal form change ([3]; 0 days): No | Water content ([3]; 0 days): Undetectable | Crystal form change ([3]; 1 month): No | Related substance Total impurities ([3]; 1 month): 0.22% | Water content ([3]; 1 month): Undetectable | Crystal form change ([3]; 2 months): No | Related substance Total impurities ([3]; 2 months): 0.26% | Crystal form change ([3]; 3 months): No | Related substance Total impurities ([3]; 3 months): 0.26% | Crystal form change ([3]; 6 months): No | Related substance Total impurities ([3]; 6 months): 0.27% | Water content ([3]; 6 months): Undetectable | Crystal form change ([4]; 0 day): No | Purity ([4]; 0 day): 98.60% | Crystal form change ([4]; 25 °C/60% RH/17 days): No | Purity ([4]; 25 °C/60% RH/17 days): 99.04% | Crystal form change ([4]; 40 °C/75% RH/17 days): No | Purity ([4]; 40 °C/75% RH/17 days): 99.00%
SMILES: Cn1cc2cc(-c3nn4ccc(C5CC5)nc4c(-c4ccc(OC(F)F)cc4)c3=O)ccc2n1 [Crystal form L, 2-cyclopropyl-9-[4-(difluoromethoxy)phenyl]-7-(2-methyl-2H-indazol-5-yl)-8H-pyrimido[1,2-b]pyridazin-8-one]
change in crystal form or purity ([4]; 25 °C/60% RH for 17 days): no change in either crystal form or purity | change in crystal form or purity ([4]; 40 °C/75% RH for 17 days): no change in either crystal form or purity

IC50 [5]: 260 nM | AUC(0-t) [6]: 45500 ng·h/mL | Cmax [6]: 2070 ng/mL | IC50 [7]: 6.44 nM
SMILES: O=c1c(-c2ccc(OC(F)F)cc2)nn2ccc(C3CC3)nc2c1-c1ccc(OC(F)F)cc1 [Example 1, 2-Cyclopropyl-7,9-bis[4-(difluoromethoxy)phenyl]-8H-pyrimido[1,2-b]pyridazin-8-one]

IC50 [5]: 119 nM | AUC(0-t) [6]: 8730 ng·h/mL | Cmax [6]: 1370 ng/mL | IC50 [7]: 11.4 nM
SMILES: O=c1c(-c2ccc3c(c2)OCO3)nn2ccc(C3CC3)nc2c1-c1ccc2c(c1)OCO2 [Example 2, 7,9-Bis(benzo[d][1,3]dioxol-5-yl)-2-cyclopropyl-8H-pyrimido[1,2-b]pyridazin-8-one]

IC50 [5]: 14.3 nM | AUC(0-t) [6]: 78300 ng·h/mL | Cmax [6]: 4210 ng/mL | IC50 [7]: 10.7 nM
SMILES: Cn1cc2cc(-c3nn4ccc(C5CC5)nc4c(-c4ccc(OC(F)F)cc4)c3=O)ccc2n1 [Example 3, 2-Cyclopropyl-9-[4-(difluoromethoxy)phenyl]-7-(2-methyl-2H-indazol-5-yl)-8H-pyrimido[1,2-b]pyridazin-8-one]
